Reference: patent US5250561A, “Tetrahydroindazole, tetrahydrocyclopentapyrazole, and hexahydrocycloheptapyrazole compounds and their use as HMG-COA reductase inhibitors” (Ortho Pharmaceutical Corporation, priority 1992, dated 1993)
Where a name gives a salt, the structure may show the parent alone.

Columns and labels:
HMG-CoA reductase = assay: HMG-CoA Reductase Isolation And Assay (ammonium sulfate precipitated enzyme from rat liver); assay type: biochemical, male Wistar rats; settings: racemic mixture
Procedure: Livers were harvested from male Wistar rats (250 g) following a five day feeding with powdered chow containing 2% cholestyramine. Ammonium sulfate precipitated HMG-CoA reductase was prepared from these livers according to the method of Heller, et. al. (Heller, R. A. Shrewsbury, M. A. Journal of Biological Chemistry, 251, 1976, 3815-3822). HMG-CoA reductase activity was measured using a modification of the procedure of Edwards, et. al. (Edwards, P. A., Lemongello, […]. Journal of Lipid Research, 20, 1979, 40-46). The effects of compounds on HMG-CoA reductase activity were determined by combining the compound with the enzyme and preincubating for 10 minutes prior to addition of the substrate […].

Hep-G2 cells = assay: Cell Culture Cholesterol Biosynthesis Assay; assay type: cell-based; settings: Homo sapiens, racemic mixture
Procedure: When the cells were 2/3 confluent, they were fed MEM containing Earles salts and delipidated serum protein (DLP) at 5 mg/mL and then incubated for a period of 24 h. DLP was prepared according to the procedure of Rothblat, et. al. ([…]., Howard, B. V. In Vitro (Rockville), 12, 1976, 554-557). The DLP medium was then removed and 3.3 mL of media containing the drug indicated was added. […] Fatty acids were extracted and digitonin precipitable sterols were recovered according the procedure of Kanduch and Saucier (Kandutch, A. A., Saucier, S. E. Journal of Biological Chemistry, 244, 1969, 2299-2305). To adjust for cell number per flask, the cholesterol synthesized was normalized to the fatty acids synthesized and results were expressed as percent inhibition vs. control.

| IC50 (HMG-CoA reductase; Table III) [nM] | IC50 (Hep-G2 cells; HepG2, Table III) [nM] | SMILES | also measured |
| --- | --- | --- | --- |
| 1300 |  | CCCC1CCCc2c1nn(-c1ccc(F)cc1)c2/C=C/[C@@H](O)C[C@@H](O)CC(=O)O (stereo partly drawn) [Compound 29] |  |
| 14 | 460 | COc1ccc(CC2CCCc3c2nn(-c2ccc(F)cc2)c3/C=C/[C@@H](O)C[C@@H](O)CC(=O)O)cc1 (stereo partly drawn) [Compound 20] |  |
|  |  | CCOC(=O)C[C@H](O)C[C@H](O)/C=C/c1c2c(nn1-c1ccc(F)cc1)C(Cc1ccc(Cl)cc1)CCC2 (stereo partly drawn) [Compound 60] | IC50 (Hep-G2 cells; HepG2, Table IV): 460 nM |
| 58 | 360 | O=C(O)C[C@H](O)C[C@H](O)/C=C/c1c2c(nn1-c1ccc(F)cc1)C(Cc1ccc(Cl)cc1)CCC2 (stereo partly drawn) [Compound 16] |  |
| 19 | 130 | Cc1ccc(CC2CCCc3c2nn(-c2ccc(F)cc2)c3/C=C/[C@@H](O)C[C@@H](O)CC(=O)O)cc1 (stereo partly drawn) [Compound 19] |  |
| 1000 |  | CCC1CCCc2c1nn(-c1ccc(F)cc1)c2/C=C/[C@@H](O)C[C@@H](O)CC(=O)O (stereo partly drawn) [Compound 24] |  |
| 5100 |  | O=C(O)C[C@H](O)C[C@H](O)/C=C/c1c2c(nn1-c1ccc(F)cc1)CCC2 (relative stereo) [Compound 10] |  |
| 13000 |  | O=C(O)C[C@H](O)C[C@H](O)/C=C/c1c2c(nn1-c1ccc(F)cc1)-c1ccccc1CC2 (relative stereo) [Compound 22] |  |
| 32 | 1300 | O=C(O)C[C@H](O)C[C@H](O)/C=C/c1c2c(nn1-c1ccc(F)cc1)C(CC=Cc1ccccc1)CCC2 (stereo partly drawn) [Compound 34] |  |
| 14 | 260 | CC(C)c1ccc(CC2CCCc3c2nn(-c2ccc(F)cc2)c3/C=C/[C@@H](O)C[C@@H](O)CC(=O)O)cc1 (stereo partly drawn) [Compound 18] |  |
| 160 | 1100 | O=C(O)C[C@H](O)C[C@H](O)/C=C/c1c2c(nn1-c1ccc(F)cc1)C(CCCc1ccccc1)CCC2 (stereo partly drawn) [Compound 33] |  |
|  |  | CCOC(=O)C[C@H](O)C[C@H](O)/C=C/c1c2c(nn1-c1ccc(F)cc1)C(Cc1ccccc1)CCC2 (mixture of isomers) [Compound 47, Ethyl (E)-(3RS,5SR)-7-[7-benzyl-2-(4-fluorophenyl)-4,5,6,7-tetrahydro-2H-indazol-3-yl]-3,5-dihydroxy-6-heptenoate] | IC50 (HMG-CoA reductase; Table IV): 120 nM; IC50 (Hep-G2 cells; HepG2, Table IV): 290 nM |
|  |  | CC(C)(C)c1ccc(CC2CCCc3c2nn(-c2ccc(F)cc2)c3/C=C/[C@@H]2C[C@@H](O)CC(=O)O2)cc1 (stereo partly drawn) [Compound 82] | IC50 (HMG-CoA reductase; Table V): 70 nM; IC50 (Hep-G2 cells; HepG2, Table V): 230 nM |
|  |  | CCOC(=O)C[C@H](O)C[C@H](O)/C=C/c1c2c(nn1-c1ccc(F)cc1)C(Cc1cccc(OC)c1)CCC2 (stereo partly drawn) [Compound 58] | IC50 (HMG-CoA reductase; Table IV): 210 nM; IC50 (Hep-G2 cells; HepG2, Table IV): 800 nM |
| 16 | 135 | CC(C)(C)c1ccc(CC2CCCc3c2nn(-c2ccc(F)cc2)c3/C=C/[C@@H](O)C[C@@H](O)CC(=O)O)cc1 (stereo partly drawn) [Compound 21] |  |
| 7700 |  | O=C(O)C[C@H](O)C[C@H](O)/C=C/c1c2c(nn1-c1ccc(F)cc1)C(C1CCCCC1)CCC2 (stereo partly drawn) [Compound 23] |  |
| 2700 |  | C/C(=C\c1c2c(nn1-c1ccc(F)cc1)CCCC2)[C@@H](O)C[C@@H](O)CC(=O)O (relative stereo) [Compound 27] |  |
|  |  | O=C1C[C@H](O)C[C@@H](/C=C/c2c3c(nn2-c2ccc(F)cc2)CCCC3)O1 (relative stereo) [Compound 83] | IC50 (HMG-CoA reductase; Table V): 9000 nM |
| 3800 |  | O=C(O)C[C@H](O)C[C@H](O)/C=C/c1c2c(nn1-c1ccc(F)cc1)CCCCC2 (relative stereo) [Compound 37] |  |
|  |  | O=C(O)C[C@H](O)C[C@H](O)/C=C/c1nn(-c2ccc(F)cc2)c2c1CCCC2CC=Cc1ccccc1 (stereo partly drawn) [Compound 8] | IC50 (HMG-CoA reductase; Table II): 3000 nM |
|  |  | CCOC(=O)C[C@H](O)C[C@H](O)/C=C/c1c2c(nn1-c1ccc(F)cc1)C(Cc1ccc(C(C)(C)C)cc1)CCC2 (stereo partly drawn) [Compound 64] | IC50 (HMG-CoA reductase; Table IV): 30 nM |
| 168 | 3900 | COc1ccc(CC2CCCc3c2nn(-c2ccc(F)cc2)c3/C=C/[C@@H](O)C[C@@H](O)CC(=O)O)cc1OC (stereo partly drawn) [Compound 15] |  |
| 23000 |  | O=C(O)C[C@H](O)C[C@H](O)/C=C/c1c2c(nn1Cc1ccc(F)cc1)CCCCC2 (relative stereo) [Compound 38] |  |
|  |  | O=C(O)C[C@H](O)C[C@H](O)/C=C/c1nn(-c2ccc(F)cc2)c2c1CCCC2CCc1ccccc1 (stereo partly drawn) [Compound 7] | IC50 (Hep-G2 cells; HepG2, Table II): > 10000 nM |
|  |  | O=C(O)C[C@H](O)C[C@H](O)/C=C/c1nn(-c2ccc(F)cc2)c2c1CCCC2C1CCCCC1 (stereo partly drawn) [Compound 4] | IC50 (HMG-CoA reductase; Table II): 47000 nM |

| IC50 (HMG-CoA reductase; Table III) [nM] | IC50 (Hep-G2 cells; HepG2, Table III) [nM] | SMILES | also measured |
| --- | --- | --- | --- |
| 2500 |  | O=C(O)C[C@H](O)C[C@H](O)/C=C/c1c2c(nn1-c1ccc(F)cc1)CCCC2 (relative stereo) [Compound 25] |  |
|  |  | CCC(CC)CC1CCCc2c1nn(-c1ccc(F)cc1)c2/C=C/[C@@H]1C[C@@H](O)CC(=O)O1 (stereo partly drawn) [Compound 80] | IC50 (HMG-CoA reductase; Table V): 29000 nM |
| 5.6 | 330 | O=C(O)C[C@H](O)C[C@H](O)/C=C/c1c2c(nn1-c1ccc(F)cc1)C(Cc1ccc3ccccc3c1)CCC2 (stereo partly drawn) [Compound 13] |  |
| 26 | 370 | O=C(O)C[C@H](O)C[C@H](O)/C=C/c1c2c(nn1-c1ccc(F)cc1)C(Cc1cccc3ccccc13)CCC2 (stereo partly drawn) [Compound 11] |  |
|  |  | CCC1CCCc2c(/C=C/[C@@H](O)C[C@@H](O)CC(=O)O)nn(-c3ccc(F)cc3)c21 (stereo partly drawn) [Compound 5] | IC50 (HMG-CoA reductase; Table II): 35000 nM |
| 100 | 1300 | O=C(O)C[C@H](O)C[C@H](O)/C=C/c1c2c(nn1-c1ccc(F)cc1)C(Cc1ccccc1Cl)CCC2 (stereo partly drawn) [Compound 12] |  |
| 1000 |  | CCC(C)C1CCCc2c1nn(-c1ccc(F)cc1)c2/C=C/[C@@H](O)C[C@@H](O)CC(=O)O (stereo partly drawn) [Compound 35] |  |
|  |  | CC1CCCc2c(/C=C/[C@@H](O)C[C@@H](O)CC(=O)O)nn(-c3ccc(F)cc3)c21 (stereo partly drawn) [Compound 6] | IC50 (HMG-CoA reductase; Table II): 100000 nM |
| 48 | 1090 | COc1cccc(CC2CCCc3c2nn(-c2ccc(F)cc2)c3/C=C/[C@@H](O)C[C@@H](O)CC(=O)O)c1 (stereo partly drawn) [Compound 14] |  |
| 8800 |  | O=C(O)C[C@H](O)C[C@H](O)/C=C/c1c2c(nn1-c1ccc(Cl)cc1)CCCC2 (relative stereo) [Compound 26] |  |
|  |  | O=C1C[C@H](O)C[C@@H](/C=C/c2c3c(nn2-c2ccc(F)cc2)C(Cc2ccc4ccccc4c2)CCC3)O1 (stereo partly drawn) [Compound 81] | IC50 (Hep-G2 cells; HepG2, Table V): 390 nM |
| 85 | 220 | O=C(O)C[C@H](O)C[C@H](O)/C=C/c1c2c(nn1-c1ccc(F)cc1)C(Cc1ccccc1)CCC2 (stereo partly drawn) [Compound 31] |  |
|  |  | O=C(O)C[C@H](O)C[C@H](O)/C=C/c1nn(Cc2ccc(F)cc2)c2c1CCCCC2 (relative stereo) [Compound 9] | IC50 (HMG-CoA reductase; Table II): 100000 nM |
|  |  | CCOC(=O)C[C@H](O)C[C@H](O)/C=C/c1c2c(nn1-c1ccc(F)cc1)C(Cc1ccc(C)cc1)CCC2 (stereo partly drawn) [Compound 62] | IC50 (HMG-CoA reductase; Table IV): 70 nM; IC50 (Hep-G2 cells; HepG2, Table IV): 200 nM |
|  |  | O=C1C[C@H](O)C[C@@H](/C=C/c2c3c(nn2-c2ccc(F)cc2)C(Cc2ccccc2)CCC3)O1 (mixture of isomers) [Compound 79, (E)-(4RS,6SR)-6-[2-[7-Benzyl-2-(4-fluorophenyl)-4,5,6,7-tetrahydro-2H-indazol-3-yl]ethenyl]-4-hydroxy-3,4,5,6-tetrahydro-2H-pyran-2-one] | IC50 (HMG-CoA reductase; Table V): 750 nM; IC50 (Hep-G2 cells; HepG2, Table V): 260 nM |
|  |  | O=C(O)C[C@H](O)C[C@H](O)/C=C/c1nn(-c2ccc(F)cc2)c2c1CCC2 (relative stereo) [Compound 2] | IC50 (HMG-CoA reductase; Table II): 100000 nM |
| 2100 |  | O=C(O)C[C@H](O)C[C@H](O)/C=C/c1c2c(nn1-c1ccc(F)cc1)-c1ccccc1CCC2 (relative stereo) [Compound 36] |  |
| 2.7 | 240 | O=C(O)C[C@H](O)C[C@H](O)/C=C/c1c2c(nn1-c1ccc(F)cc1)C(Cc1ccc(-c3ccccc3)cc1)CCC2 (stereo partly drawn) [Compound 1, (E)-(3RS,5SR)-7-[7-[(1,1'-Biphenyl)-4-ylmethyl]-2-(4-fluorophenyl)-4,5,6,7-tetrahydro-2H-indazol-3-yl]-3,5-dihydroxy-6-heptenoic acid.Sodium salt.Dihydrate] |  |
|  |  | COC(=O)C[C@H](O)C[C@H](O)/C=C/c1c2c(nn1-c1ccc(F)cc1)C(Cc1ccc(C(C)C)cc1)CCC2 (stereo partly drawn) [Compound 43] | IC50 (Hep-G2 cells; HepG2, Table I): 120 nM |
| 334 | 1750 | O=C(O)C[C@H](O)C[C@H](O)/C=C/c1c2c(nn1-c1ccc(F)cc1)C(CCc1ccccc1)CCC2 (stereo partly drawn) [Compound 32] |  |
|  |  | O=C(O)C[C@H](O)C[C@H](O)/C=C/c1nn(-c2ccc(F)cc2)c2c1CCCC2Cc1ccc(F)cc1 (stereo partly drawn) [Compound 3] | IC50 (HMG-CoA reductase; Table II): 31000 nM; IC50 (Hep-G2 cells; HepG2, Table II): 27000 nM |
| 3100 |  | O=C(O)C[C@H](O)C[C@H](O)/C=C/c1c2c(nn1-c1ccc(F)cc1)C(c1ccccc1)CCC2 (stereo partly drawn) [Compound 30] |  |
|  |  | COC(=O)C[C@H](O)C[C@H](O)/C=C/c1c2c(nn1-c1ccc(F)cc1)C(Cc1ccc3ccccc3c1)CCC2 (stereo partly drawn) [Compound 42] | IC50 (Hep-G2 cells; HepG2, Table I): 365 nM |
| 1100 |  | CC1CCCc2c1nn(-c1ccc(F)cc1)c2/C=C/[C@@H](O)C[C@@H](O)CC(=O)O (stereo partly drawn) [Compound 28] |  |
| 150 | 700 | O=C(O)C[C@H](O)C[C@H](O)/C=C/c1c2c(nn1-c1ccc(F)cc1)C(Cc1ccc(F)cc1)CCC2 (stereo partly drawn) [Compound 17] |  |
